In patent US10358434B2, “2-(3-pyridinyl)-1H-benzimidazole derivative compound and medicament containing same” (NIHON MEDI-PHYSICS CO., LTD., priority 2014, dated 2019) one finds IC50 and Selectivity factor data, which are given here for 16 compounds.

Values joined by “and” are separate entries in the source; they are usually repeats but may differ in a detail not shown here. Identical values can stand only once.

One assay deals with T1, human CYP11B1 (Homo sapiens, UniProt P15538).
T1 construct: expressed in transfected cells; host or cells: V79 cells (Chinese hamster lung-derived fibroblasts, from ECACC through DS Pharma Biomedical)
T1 sequence (P15538 25-503): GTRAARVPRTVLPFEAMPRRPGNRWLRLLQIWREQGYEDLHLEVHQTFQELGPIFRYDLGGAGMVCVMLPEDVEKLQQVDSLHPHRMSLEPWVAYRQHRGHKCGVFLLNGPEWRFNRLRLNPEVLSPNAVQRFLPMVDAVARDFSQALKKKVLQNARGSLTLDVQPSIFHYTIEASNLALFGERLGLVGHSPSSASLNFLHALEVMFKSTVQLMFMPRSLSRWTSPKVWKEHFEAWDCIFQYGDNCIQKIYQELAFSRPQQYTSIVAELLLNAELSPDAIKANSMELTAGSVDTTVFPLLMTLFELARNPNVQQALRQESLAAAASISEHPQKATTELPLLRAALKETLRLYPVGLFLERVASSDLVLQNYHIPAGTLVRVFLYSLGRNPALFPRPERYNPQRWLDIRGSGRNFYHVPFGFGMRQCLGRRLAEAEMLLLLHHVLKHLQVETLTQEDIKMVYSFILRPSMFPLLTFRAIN
Description: Cortisol production inhibition in V79-B1 cells expressing human CYP11B1 (ELISA). The assay is classed as cell-based. The note with it: 11-deoxycortisol 100 nmol/L, 1 hour, cortisol by ELISA, mean or mean ± SD. Here is the method: (§1) This inhibition experiment can be carried out by the following operations. Human CYP11B1 and human CYP11B2 are allowed to individually express in Chinese hamster lung-derived fibroblasts. Subsequently, 11-deoxycortisol is added to the cells expressing human CYP11B1 to a final concentration of 100 nmol/L, and corticosterone is added to the cells expressing human CYP11B2 to a final concentration of 100 nmol/L. At the same time, a target compound used as an analytical sample is added to each of the cells to a final concentration of 10^−4 to 10^4 nmol/L. Thereafter, the concentration of cortisol as a metabolite of CYP11B1 is measured in the cells expressing human CYP11B1 according to ELISA (Enzyme-Linked ImmunoSorbent Assay), and the concentration of aldosterone as a metabolite of CYP11B2 is measured in the cells expressing human CYP11B2 according to ELISA. Provided that the aldosterone concentration and the cortisol concentration without addition of any target compound as a sample are each set at 100%, an inhibition curve is produced, and then inhibitory activity (IC50) is calculated.
(§2) Chinese hamster lung-derived fibroblasts, V79 cells (acquired from ECACC (European Collection of Cell Cultures) through DS Pharma Biomedical), were allowed to express human CYP11B2, so as to produce V79-B2, and were also allowed to express human CYP11B1, so as to produce V79-B1. V79 cells were cultured in a DMEM medium (containing 4,500 mg/L D-glucose, L-glutamine, and 110 mg/L sodium pyruvate; manufactured by Life Technologies). V79-B2 or V79-B1 was inoculated on a microplate, and then cultured overnight. Thereafter, a mixed solution of corticosterone and a compound as a test target was added into a culture supernatant of V79-B2, and a mixed solution of 11-deoxycortisol and a compound as a test target was added into a culture supernatant of V79-B1. As a solvent for these mixed solutions, the aforementioned DMEM medium further containing 0.1 v/v % dimethyl sulfoxide was used. The concentration of corticosterone or 11-deoxycortisol was adjusted to be 100 nmol/L by addition of the solvent. As test target compounds, (R)-4-iodometomidate (IMTO), and Compounds 100, 200, 300, 400, 500, and 601 to 610 synthesized by methods shown in Examples 1, 3, 5, 6, 8, 10, 12, 14, 16, 18, 20, 22, 24, 26, and 28, respectively, were used. The aforementioned mixed solution was prepared such that the concentration of each compound was 10^−4 to 10^4 nmol/L in the mixed solution. One hour later, the culture supernatant of V79-B1 was recovered, and the concentration of cortisol as a metabolite of CYP11B1 was measured by ELISA (Enzyme-Linked ImmunoSorbent Assay). Moreover, four hours later, the culture supernatant of V79-B2 was recovered, and the concentration of aldosterone as a metabolite of CYP11B2 was measured by ELISA. Provided that the concentration of aldosterone or the concentration of cortisol obtained when none of IMTO and Compounds 100, 200, 300, 400 and 500 was added was defined as 100%, an inhibition curve was produced, and the inhibitory activity (IC50) of each compound was then calculated.
(§3) In Tables 5 and 6, the term “Selectivity factor” indicates a quotient of the mean value of IC50 for cortisol production inhibition divided by the mean value of IC50 for aldosterone production inhibition. In addition, the symbol “n” indicates the number of tests.
(In general: An ELISA detects its analyte on a solid surface through an enzyme-linked reagent.)

Another assay addresses T2, human CYP11B2 (Homo sapiens, UniProt P19099).
T2 construct: expressed in transfected cells; host or cells: V79 cells (Chinese hamster lung-derived fibroblasts, from ECACC through DS Pharma Biomedical)
T2 sequence (P19099 25-503): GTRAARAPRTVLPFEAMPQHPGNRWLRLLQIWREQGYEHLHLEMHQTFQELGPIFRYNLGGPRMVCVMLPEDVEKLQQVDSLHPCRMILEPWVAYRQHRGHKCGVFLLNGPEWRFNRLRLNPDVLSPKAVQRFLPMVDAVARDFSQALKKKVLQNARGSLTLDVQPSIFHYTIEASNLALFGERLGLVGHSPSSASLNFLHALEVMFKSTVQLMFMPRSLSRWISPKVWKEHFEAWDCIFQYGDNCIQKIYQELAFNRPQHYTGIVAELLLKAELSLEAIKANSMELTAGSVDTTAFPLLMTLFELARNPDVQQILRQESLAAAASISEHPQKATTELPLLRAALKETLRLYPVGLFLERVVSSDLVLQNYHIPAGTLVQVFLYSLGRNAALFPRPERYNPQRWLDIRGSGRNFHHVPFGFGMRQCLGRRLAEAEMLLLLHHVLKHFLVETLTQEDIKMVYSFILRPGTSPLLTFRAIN
Nature of the assay: Aldosterone production inhibition in V79-B2 cells expressing human CYP11B2 (ELISA). It is filed as cell-based. Conditions: for IC50: V79-B2 cells, corticosterone 100 nmol/L, 4 hours, aldosterone by ELISA, mean or mean ± SD; for Selectivity factor: mean IC50 cortisol production inhibition divided by mean IC50 aldosterone production inhibition. The method, then: as §1, §2, §3

`FCCn1c(-c2cncc(Cn3ccnc3)c2)nc2cc(F)c(Cl)cc21` [Compound 100, 6-Chloro-5-fluoro-1-(2-fluoroethyl)-2-[5-(imidazol-1-ylmethyl)pyridin-3-yl]benzimidazole]: at human CYP11B1, the IC50 (in general, the concentration at which inhibition is half-maximal) is 109 ± 15.8 nM. On human CYP11B2, half-maximal inhibition (IC50) required 6.9 ± 2.87 nM and the Selectivity factor was found to be 15.8.

`FCCn1c(-c2cncc(Cn3ccnc3)c2)nc2cc(F)c(Br)cc21` [Compound 200, 6-Bromo-5-fluoro-1-(2-fluoroethyl)-2-[5-(imidazol-1-ylmethyl)pyridin-3-yl]benzimidazole]: at human CYP11B1, the IC50 is 142 nM. Also, at human CYP11B2, the IC50 came out at 7.47 nM and the Selectivity factor was determined as 19.0.

In turn, `COC(=O)c1cncn1Cc1cncc(-c2nc3cc(F)c(Br)cc3n2CCO)c1` [Compound 300, 2-{6-Bromo-5-fluoro-2-[5-(5-methylcarboxylateimidazol-1-ylmethyl)pyridin-3-yl]benzimidazol-1-yl}ethanol] gave an IC50 on human CYP11B1 of 19 nM. Moreover, at human CYP11B2, 10.6 nM corresponded to half-maximal inhibition (IC50) and the Selectivity factor turned out to be 1.79.

For `FCCn1c(-c2cncc(Cn3ccnc3)c2)nc2cc(F)c(I)cc21` [Compound 400, 5-Fluoro-1-(2-fluoroethyl)-2-[5-(imidazol-1-ylmethyl)pyridin-3-yl]-6-iodobenzimidazole], the IC50 against human CYP11B1 worked out at 345 nM. At human CYP11B2, inhibition was half-maximal at 44.5 nM (IC50) and the Selectivity factor is recorded as 7.77.

`FCCCn1c(-c2cncc(Cn3ccnc3)c2)nc2cc(F)c(Cl)cc21` [Compound 500, 6-Chloro-5-fluoro-1-(3-fluoropropyl)-2-[5-(imidazol-1-ylmethyl)pyridin-3-yl]benzimidazole] yielded an IC50 against human CYP11B1 of 33.5 nM. At human CYP11B2, this compound returned an IC50 of 3.94 nM and a Selectivity factor of 8.51.

Take `Ic1ccc2nc(-c3cncc(Cn4ccnc4)c3)n(C3CC3)c2c1` [Compound 602, 1-Cyclopropyl-2-[3-(1H-imidazol-1-ylmethyl)pyridin-5-yl]-6-iodo-1H-benzimidazole]: it took 44.5 nM to reach half-maximal inhibition at human CYP11B1 (IC50). On human CYP11B2, this compound registered an IC50 of 2.17 nM and a Selectivity factor of 20.5.

In turn, `Ic1ccc2nc(-c3cncc(Cn4ccnn4)c3)n(C3CC3)c2c1` [Compound 603, 1-Cyclopropyl-2-[3-(1H-1,2,3-triazol-1-ylmethyl)pyridin-5-yl]-6-iodo-1H-benzimidazole] registered an IC50 against human CYP11B1 of 296 nM. Further, on human CYP11B2, the midpoint of inhibition, the IC50, lay at 18.1 nM and the Selectivity factor was found to be 16.4.

Consider `FCCn1c(-c2cncc(Cn3ccnc3)c2)nc2ccc(I)cc21` [Compound 604, 1-(2-Fluoroethyl)-2-[5-{(imidazol-1-yl)methyl}pyridin-3-yl]-6-iodobenzimidazole], for which inhibition against human CYP11B1 was half-maximal at 54 nM (IC50). On human CYP11B2, this compound displayed an IC50 of 4.54 nM and a Selectivity factor of 11.9.

For `Fc1cc2nc(-c3cncc(Cn4ccnc4)c3)n(Cc3ccc(I)cc3)c2cc1Cl` [Compound 605, 6-Chloro-5-fluoro-1-(4-iodobenzyl)-2-[5-(1H-imidazol-1-ylmethyl)-3-pyridinyl]-1H-benzimidazole], the figures for the IC50 against human CYP11B1 and on human CYP11B2 were 359 nM and 204 nM, respectively. Further, the Selectivity factor on human CYP11B2 was found to be 1.76.

`CC(C)n1c(-c2cncc(Cn3ccnc3)c2)nc2ccc(I)cc21` [Compound 606, 2-[5-{(1H-imidazol-1-yl)methyl}pyridin-3-yl]-6-iodo-1-isopropyl-1H-benzo[d]imidazole] gave an IC50 against human CYP11B1 of 368 nM. Further, at human CYP11B2, it took 116 nM to reach half-maximal inhibition (IC50) and the Selectivity factor worked out at 3.17.

For the compound `Cn1c(-c2cncc(Cn3ccnc3)c2)nc2ccc(I)cc21` [Compound 607, 2-[5-{(1H-imidazol-1-yl)methyl}pyridin-3-yl]-6-iodo-1-methyl-1H-benzo[d]imidazole], the midpoint of inhibition at human CYP11B1, the IC50, lay at 7.07 nM. In addition, on human CYP11B2, half-maximal inhibition (IC50) required 0.93 nM and the Selectivity factor is recorded as 7.62.

On to `CCn1c(-c2cncc(Cn3ccnc3)c2)nc2ccc(I)cc21` [Compound 608, 2-[5-{(1H-imidazol-1-yl)methyl}pyridin-3-yl]-1-ethyl-6-iodo-1H-benzo[d]imidazole], for which 52.2 nM corresponded to half-maximal inhibition against human CYP11B1 (IC50). On human CYP11B2, this compound yielded an IC50 of 6.58 nM and a Selectivity factor of 7.93.

On human CYP11B1, `COc1cc(I)cc2c1nc(-c1cncc(Cn3ccnc3)c1)n2C1CC1` [Compound 609, 1-Cyclopropyl-2-[5-(imidazol-1-ylmethyl)pyridin-3-yl]-6-iodo-4-methoxybenzimidazole] yielded an IC50 of 15.5 nM. At human CYP11B2, the midpoint of inhibition, the IC50, lay at 1.49 nM and the Selectivity factor is given as 10.4.

At human CYP11B1, `FCCn1c(-c2cncc(Cn3cncc3I)c2)nc2cc(F)c(Cl)cc21` [Compound 610, 6-Chloro-5-fluoro-1-(2-fluoroethyl)-2-{5-(5-iodo-1H-imidazol-1-ylmethyl)pyridin-3-yl}benzimidazole] gave an IC50 of 91 nM. On human CYP11B2, this compound gave an IC50 of 9.81 nM and a Selectivity factor of 9.27.

`COC(=O)c1cncn1[C@H](C)c1ccc(I)cc1` [IMTO, (R)-4-iodometomidate, reference compound]: the IC50 was 0.22 nM and 0.25 nM on human CYP11B1; 0.21 nM and 0.24 nM at human CYP11B2. Also, at human CYP11B2, the Selectivity factor is 1.01 and 1.03.

With “Methyl 1-[4-(1-cyclopropyl-6-iodo-1H-imidazobenzo-2-yl)-3-pyridinylmethyl)]-1H-imidazolecarboxylate [Compound 601]”, the IC50 on human CYP11B1 was found to be 37.8 nM. On human CYP11B2, this compound registered an IC50 of 3.09 nM and a Selectivity factor of 12.2.
